O=C(O)c1ccc[nH]c1=O
solubility (mole fraction)
Conditions | in acetone | in acetonitrile | in ethanol | in ethyl acetate | in isopropanol | in methanol | in n-butanol | in n-butyl acetate | in sec-butanol | in water
293.15 K | 0.00135 | 0.000837 | 0.000992 | 0.000248 | 0.000278 | 0.00097 | 0.000215 | 5.2e-05 | 0.000138 | 0.000796
303.15 K | 0.00199 | 0.00116 | 0.00134 | 0.000365 | 0.000401 | 0.00146 | 0.00031 | 7.5e-05 | 0.000199 | 0.00111
308.15 K | 0.00233 | – | – | – | – | – | – | – | – | –
313.15 K | 0.00277 | 0.00169 | 0.00177 | 0.000559 | 0.000565 | 0.0021 | 0.000437 | 0.000105 | 0.000283 | 0.00159
318.15 K | 0.0033 | 0.0019 | 0.00218 | 0.000661 | 0.000595 | 0.00253 | 0.000515 | 0.000124 | 0.000331 | 0.00195
323.15 K | 0.00374 | 0.00218 | 0.0025 | 0.000795 | 0.000772 | 0.00297 | 0.000603 | 0.000146 | 0.000384 | 0.00237
333.15 K | – | 0.00282 | 0.00351 | 0.00124 | 0.00106 | 0.00378 | 0.000817 | 0.000197 | 0.000525 | 0.00326

— BigSolDB 2.1
